Measured values reported in patent publication US7528138B2, “Pyrazolo[1,5-a]pyrimidines useful as inhibitors of protein kinases” (Vertex Pharmaceuticals Incorporated, priority 2004, dated 2009).

Tests used:
JAK3 = molecular target: T1, JAK3 (Homo sapiens, UniProt P52333); test: JAK3 Inhibition Assay, 33P incorporation; format: biochemical; details: enzyme inhibition data (Ki), Table 11
T1 sequence (P52333 1-1124): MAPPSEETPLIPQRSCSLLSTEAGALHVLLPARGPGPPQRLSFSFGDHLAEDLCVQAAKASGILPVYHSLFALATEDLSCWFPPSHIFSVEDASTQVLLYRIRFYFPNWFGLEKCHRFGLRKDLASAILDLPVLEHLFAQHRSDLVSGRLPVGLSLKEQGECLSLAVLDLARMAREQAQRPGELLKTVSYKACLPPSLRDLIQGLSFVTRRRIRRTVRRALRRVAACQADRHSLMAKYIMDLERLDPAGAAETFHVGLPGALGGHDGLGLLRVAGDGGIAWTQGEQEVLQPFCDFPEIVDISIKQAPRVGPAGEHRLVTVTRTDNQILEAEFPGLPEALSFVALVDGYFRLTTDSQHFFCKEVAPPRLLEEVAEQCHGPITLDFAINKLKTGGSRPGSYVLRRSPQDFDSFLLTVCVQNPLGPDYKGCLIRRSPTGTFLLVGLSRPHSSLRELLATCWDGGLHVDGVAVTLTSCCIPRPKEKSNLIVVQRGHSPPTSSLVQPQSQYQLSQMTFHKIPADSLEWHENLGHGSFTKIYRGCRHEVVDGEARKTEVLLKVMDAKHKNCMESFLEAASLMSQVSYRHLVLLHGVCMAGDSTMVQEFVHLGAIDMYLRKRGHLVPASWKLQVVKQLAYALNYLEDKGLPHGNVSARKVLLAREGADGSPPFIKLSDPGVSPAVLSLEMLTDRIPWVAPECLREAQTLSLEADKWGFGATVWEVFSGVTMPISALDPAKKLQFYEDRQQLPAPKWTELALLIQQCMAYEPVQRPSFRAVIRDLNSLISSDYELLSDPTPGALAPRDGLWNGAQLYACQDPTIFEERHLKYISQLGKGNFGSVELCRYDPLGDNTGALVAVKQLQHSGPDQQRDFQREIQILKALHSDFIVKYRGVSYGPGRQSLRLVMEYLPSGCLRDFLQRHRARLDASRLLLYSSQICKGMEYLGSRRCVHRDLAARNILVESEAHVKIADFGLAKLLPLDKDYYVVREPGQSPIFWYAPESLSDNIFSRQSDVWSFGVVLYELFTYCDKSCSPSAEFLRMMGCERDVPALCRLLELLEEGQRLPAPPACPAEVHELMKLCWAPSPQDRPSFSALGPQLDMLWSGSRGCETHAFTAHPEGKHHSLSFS
In short: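 Recombinant JAK3 at 1 nM in HEPES pH 7.4 buffer with 10 mM MgCl2, 1 mM DTT and 0.01% BSA. Substrates were 5 μM ATP (200 uCi/μmole) and 1 μM poly(Glu)4Tyr, reacted 20 min at 25 °C. Stopped with TCA, and 33P incorporation counted on glass fiber filters.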

c-Met = c-Met (Homo sapiens, UniProt P08581); test: c-Met Inhibition Assay, coupled enzyme system; format: biochemical; details: enzyme inhibition data (Ki), Table 11
In short: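 Pyruvate kinase/lactate dehydrogenase-coupled NADH assay in HEPES pH 7.5 with 80 nM c-Met, 200 μM ATP and 10 μM polyGluTyr at 30° C. Compound (0.006–12.5 μM final, 12-point) preincubated 10 min before ATP start; rates over 10 min gave Ki.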

Chain of c-Met (P08581 25-1390): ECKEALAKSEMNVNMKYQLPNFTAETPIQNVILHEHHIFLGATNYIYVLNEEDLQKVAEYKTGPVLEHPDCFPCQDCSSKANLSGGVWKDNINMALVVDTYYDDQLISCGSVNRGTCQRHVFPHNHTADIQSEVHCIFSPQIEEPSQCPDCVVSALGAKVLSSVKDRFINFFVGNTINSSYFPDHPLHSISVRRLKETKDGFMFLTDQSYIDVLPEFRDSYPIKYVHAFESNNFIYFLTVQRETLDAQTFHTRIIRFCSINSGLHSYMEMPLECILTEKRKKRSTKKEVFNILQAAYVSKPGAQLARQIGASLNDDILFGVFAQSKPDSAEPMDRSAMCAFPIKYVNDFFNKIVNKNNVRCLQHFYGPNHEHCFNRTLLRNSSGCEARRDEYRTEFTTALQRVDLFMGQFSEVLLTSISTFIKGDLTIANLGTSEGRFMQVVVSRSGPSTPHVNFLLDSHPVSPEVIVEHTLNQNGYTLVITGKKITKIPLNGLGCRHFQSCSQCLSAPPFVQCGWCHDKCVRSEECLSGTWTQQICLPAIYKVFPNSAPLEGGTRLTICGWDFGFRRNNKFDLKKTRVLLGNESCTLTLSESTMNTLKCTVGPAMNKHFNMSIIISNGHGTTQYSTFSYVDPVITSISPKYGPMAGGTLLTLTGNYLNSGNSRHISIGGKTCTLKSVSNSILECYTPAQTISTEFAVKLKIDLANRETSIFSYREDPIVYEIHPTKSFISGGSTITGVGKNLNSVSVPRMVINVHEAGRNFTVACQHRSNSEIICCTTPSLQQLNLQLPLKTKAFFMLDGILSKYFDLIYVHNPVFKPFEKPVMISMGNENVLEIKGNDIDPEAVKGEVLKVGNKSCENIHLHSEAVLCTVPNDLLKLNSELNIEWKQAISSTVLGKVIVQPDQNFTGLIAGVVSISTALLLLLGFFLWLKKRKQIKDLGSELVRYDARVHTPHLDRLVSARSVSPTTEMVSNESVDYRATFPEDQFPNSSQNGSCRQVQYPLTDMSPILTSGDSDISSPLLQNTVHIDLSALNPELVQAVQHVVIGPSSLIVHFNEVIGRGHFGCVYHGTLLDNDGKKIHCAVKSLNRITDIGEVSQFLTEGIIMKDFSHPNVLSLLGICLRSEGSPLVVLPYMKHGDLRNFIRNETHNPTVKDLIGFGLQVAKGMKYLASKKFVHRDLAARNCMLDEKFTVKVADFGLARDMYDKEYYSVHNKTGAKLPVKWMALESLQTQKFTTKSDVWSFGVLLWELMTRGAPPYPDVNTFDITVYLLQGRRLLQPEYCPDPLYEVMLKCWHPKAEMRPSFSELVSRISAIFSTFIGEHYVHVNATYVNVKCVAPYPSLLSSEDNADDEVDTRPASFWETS

| Compound | Ki (JAK3) | Ki (c-Met) |
| --- | --- | --- |
| NC1NN2C=C(c3cccc(CN4CC[C@@H](N)C4)c3)C=NC2=C1c1ccccn1 (some centres unmarked) [Compound V-226] | > 5 µM | < 0.5 µM |
| C#CCN(C)C(=O)c1cccc(-c2cnc3c(-c4ccccn4)c(N)nn3c2)n1 [Compound V-106] | > 5 µM | < 0.5 µM |
| COCCNc1ccc(-c2cnc3c(-c4ccccn4)c(N)nn3c2)cn1 [Compound V-156] | > 5 µM | < 0.5 µM |
| Cc1ccc(-c2c(N)nn3cc(-c4ccncc4)cnc23)nc1 [Compound V-132] | > 5 µM | < 0.5 µM |
| COc1ccc(-c2cn3nc(N)c(-c4ccccn4)c3nc2C)cc1 [Compound V-216] | > 5 µM | 0.5 to 5 µM |
| NCc1ccc(-c2cnc3c(-c4ccccn4)c(N)nn3c2)cc1 [Compound V-195] | 0.5 to 5 µM | < 0.5 µM |
| Nc1nn2cc(-c3ccc4[nH]ccc4c3)cnc2c1-c1ccccn1 [Compound V-212] | > 5 µM | < 0.5 µM |
| Nc1nn2cc(-c3ccc(CO)cc3)cnc2c1-c1ccccn1 [Compound V-194] | 0.5 to 5 µM | < 0.5 µM |
| CNc1cc(-c2c(N)nn3cc(-c4ccncc4)cnc23)ncn1 [Compound V-181] | < 0.5 µM | < 0.5 µM |
| CNCc1ccc(-c2cnc3c(-c4ccccn4)c(N)nn3c2)cc1 [Compound V-236] | 0.5 to 5 µM | < 0.5 µM |
| Nc1nn2cc(-c3cccc(N4CCNCC4)c3)cnc2c1-c1ccccn1 [Compound V-222] | 0.5 to 5 µM | < 0.5 µM |
| Nc1nn2cc(-c3ccc(CN4CCOCC4)cc3)cnc2c1-c1ccccn1 [Compound V-208] | 0.5 to 5 µM | 0.5 to 5 µM |
| CN(CCC#N)C(=O)c1cccc(-c2cnc3c(-c4ccccn4)c(N)nn3c2)n1 [Compound V-114] | > 5 µM | < 0.5 µM |
| CNCCN(C)C(=O)c1cccc(-c2cnc3c(-c4ccccn4)c(N)nn3c2)c1 [Compound V-189] | 0.5 to 5 µM | < 0.5 µM |
| COCCCN1CCN(C(=O)c2ccc(-c3cnc4c(-c5ccccn5)c(N)nn4c3)nc2)CC1 [Compound V-129] | 0.5 to 5 µM | < 0.5 µM |
| CCN(CC)C(=O)c1cccc(-c2cnc3c(-c4ccccn4)c(N)nn3c2)n1 [Compound V-127] | > 5 µM | < 0.5 µM |
| Nc1nn2cc(-c3ccc(CNC4CCNCC4)cc3)cnc2c1-c1ccccn1 [Compound V-232] | > 5 µM | < 0.5 µM |
| CCN(CC)C(=O)c1ccc(-c2cnc3c(-c4ccccn4)c(N)nn3c2)nc1 [Compound V-98] | 0.5 to 5 µM | < 0.5 µM |
| CC(C)Nc1cc(-c2c(N)nn3cc(-c4ccncc4)cnc23)ncn1 [Compound V-182] | < 0.5 µM | < 0.5 µM |
| Nc1nn2cc(-c3ccc(N4CCC(N)CC4)nc3)cnc2c1-c1ccccn1 [Compound V-165] | > 5 µM | < 0.5 µM |
| Nc1nn2cc(-c3cccc(C(=O)N4CCC[C@@H]4CN4CCCC4)n3)cnc2c1-c1ccccn1 [Compound V-175] | 0.5 to 5 µM | < 0.5 µM |
| NC1NN2C=C(c3cccc(CN4CCCNCC4)c3)C=NC2=C1c1ccccn1 (centres unmarked) [Compound V-228] | > 5 µM | < 0.5 µM |
| CN1CCC(N(C)C(=O)c2cccc(-c3cnc4c(-c5ccccn5)c(N)nn4c3)n2)CC1 [Compound V-101] | > 5 µM | < 0.5 µM |
| Nc1nn2cc(-c3cccc(CO)c3)cnc2c1-c1ccccn1 [Compound V-221] | 0.5 to 5 µM | < 0.5 µM |
| CC(C)CN(C)c1cc(-c2c(N)nn3cc(-c4ccncc4)cnc23)ncn1 [Compound V-243] | < 0.5 µM | < 0.5 µM |
| Nc1nn2cc(-c3ccc(N4CCC[C@@H]4CN4CCCC4)nc3)cnc2c1-c1ccccn1 [Compound V-176] | 0.5 to 5 µM | < 0.5 µM |
| COC(=O)C1CCCN1C(=O)c1cccc(-c2cnc3c(-c4ccccn4)c(N)nn3c2)n1 (centres unmarked) [Compound V-139] | > 5 µM | < 0.5 µM |
| CNC(=O)c1cnc2c(-c3ccccn3)c(N)nn2c1 [Compound V-204] | > 5 µM | 0.5 to 5 µM |

| Compound | Ki (JAK3) | Ki (c-Met) |
| --- | --- | --- |
| Nc1nn2cc(-c3ccncc3)cnc2c1-c1cc(NC2CCCCC2)ncn1 [Compound V-183] | 0.5 to 5 µM | < 0.5 µM |
| Nc1nn2cc(-c3ccncc3)cnc2c1-c1cc(Nc2ccccc2)ncn1 [Compound V-241] | < 0.5 µM | < 0.5 µM |
| CCN(CC)CCN(C)C(=O)c1cccc(-c2cnc3c(-c4ccccn4)c(N)nn3c2)n1 [Compound V-124] | > 5 µM | < 0.5 µM |
| CC(C)CNc1cc(-c2c(N)nn3cc(-c4ccncc4)cnc23)ncn1 [Compound V-185] | < 0.5 µM | < 0.5 µM |
| CC(C)N1CCN(c2ccc(-c3cnc4c(-c5ccccn5)c(N)nn4c3)cn2)CC1 [Compound V-146] | > 5 µM | < 0.5 µM |
| CCN(CC)c1cc(-c2c(N)nn3cc(-c4ccncc4)cnc23)ncn1 [Compound V-180] | < 0.5 µM | < 0.5 µM |
| Nc1nn2cc(C#CCO)cnc2c1-c1ccccn1 [Compound V-238] | 0.5 to 5 µM | < 0.5 µM |
| CNCCCN(C)C(=O)c1cccc(-c2cnc3c(-c4ccccn4)c(N)nn3c2)c1 [Compound V-190] | 0.5 to 5 µM | < 0.5 µM |
| Nc1nn2cc(-c3ccncc3)cnc2c1-c1cc(NCC2CCCCC2)ncn1 [Compound V-184] | 0.5 to 5 µM | < 0.5 µM |
| CN1CCCN(c2ccc(-c3cnc4c(-c5ccccn5)c(N)nn4c3)cn2)CC1 [Compound V-160] | > 5 µM | < 0.5 µM |
| Nc1nn2cc(-c3cccc(C(=O)N4CCC(N)CC4)n3)cnc2c1-c1ccccn1 [Compound V-104] | > 5 µM | < 0.5 µM |
| CN(CCCN)C(=O)c1ccc(-c2cnc3c(-c4ccccn4)c(N)nn3c2)nc1 [Compound V-130] | > 5 µM | < 0.5 µM |
| Nc1nn2cc(-c3cccc(CN4CCOCC4)c3)cnc2c1-c1ccccn1 [Compound V-225] | > 5 µM | < 0.5 µM |
| NC1NN2C=C(c3cccc(CN4CC[C@H](N)C4)c3)C=NC2=C1c1ccccn1 (some centres unmarked) [Compound V-227] | > 5 µM | < 0.5 µM |
| CN(C)Cc1cccc(-c2cnc3c(-c4ccccn4)c(N)nn3c2)c1 [Compound V-215] | > 5 µM | < 0.5 µM |
| COc1ccccc1-c1cnc2c(-c3ccccn3)c(N)nn2c1 [Compound V-14] | > 5 µM | 0.5 to 5 µM |
| Nc1nn2cc(-c3cccc(CN4CCNCC4)c3)cnc2c1-c1ccccn1 [Compound V-223] | 0.5 to 5 µM | < 0.5 µM |
| Nc1nn2cc(-c3ccncc3)cnc2c1-c1cc(N2CCCCC2)ncn1 [Compound V-179] | < 0.5 µM | < 0.5 µM |
| CCN1CCN(C(=O)c2cccc(-c3cnc4c(-c5ccccn5)c(N)nn4c3)n2)CC1 [Compound V-102] | > 5 µM | < 0.5 µM |
| CN(C)Cc1ccc(-c2cnc3c(-c4ccccn4)c(N)nn3c2)cc1 [Compound V-214] | 0.5 to 5 µM | < 0.5 µM |
| Nc1nn2cc(-c3ccc(C(=O)N4CCC[C@H]4CN4CCCC4)cn3)cnc2c1-c1ccccn1 [Compound V-177] | 0.5 to 5 µM | < 0.5 µM |
| CN(C)CCNc1ccc(-c2cnc3c(-c4ccccn4)c(N)nn3c2)cn1 [Compound V-159] | 0.5 to 5 µM | < 0.5 µM |
| Nc1nn2cc(-c3ccc(CN4CCC(N)CC4)cc3)cnc2c1-c1ccccn1 [Compound V-234] | 0.5 to 5 µM | < 0.5 µM |
| CCN(C)C(=O)c1cccc(-c2cnc3c(-c4ccccn4)c(N)nn3c2)n1 [Compound V-115] | > 5 µM | < 0.5 µM |
| Nc1nn2cc(-c3ccncc3)cnc2c1-c1ncccc1OCc1ccccc1 [Compound V-134] | > 5 µM | 0.5 to 5 µM |
| COc1ccccc1Nc1cc(-c2c(N)nn3cc(-c4ccncc4)cnc23)ncn1 [Compound V-242] | < 0.5 µM | < 0.5 µM |
| CCN(CC)CCN(C)c1ccc(-c2cnc3c(-c4ccccn4)c(N)nn3c2)cn1 [Compound V-173] | 0.5 to 5 µM | < 0.5 µM |
